EC50 data for 19 compounds are collected here from patent publication US11591341B2 (ALIGOS THERAPEUTICS, INC., priority 2019, dated 2023).

This assay deals with HBV. Put plainly: HBV-DNA Antiviral Assay Using HepG2.117 Cells (intracellular HBV DNA by qPCR). The settings on record: Hepatitis B virus, HepG2.117. Type of assay: cell-based, hepatitis B virus (genotype D). How it is done:
The following assay procedure describes the HBV antiviral assay, using HepG2.117 cells, which carry a stably integrated genotype D HBV genome under the control of a Tet-off promoter, and intracellular HBV DNA quantification as endpoint. Cell viability is assessed in parallel by measuring the intracellular ATP content using ATPlite (Perkin Elmer).
On day 0, HepG2.117 cells (which are maintained in routine cell culture with doxycycline present in the medium at a final concentration of 1 μg/mL) were seeded in 96-well plates (white with clear bottom) at a density of 2.0×10^4 cells/well (0.1 mL/well) in medium without doxycycline to induce pgRNA transcription and subsequent formation of HBV particles. The cells were incubated at 37° C. and 5% CO2.
On day 1, medium was removed from each well, the test articles were diluted in culture medium without doxcycyline and 100 μL was added to cell culture wells (9 concentrations, 4-fold dilution). For each plate, 6 untreated (merely DMSO) wells were included. The final concentration of DMSO in the culture medium was 2%. Each plate was prepared in duplicate (one for HBV DNA extraction, one for ATPlite measurement). The cells were incubated at 37° C. and 5% CO2 for 3 days.
On day 4, cell viability was assessed using ATPlite and cell lysates were prepared for HBV DNA extraction and subsequent quantification by qPCR.
Medium was removed from each well and 100 μL of 0.33% NP-40 in H2O was added to each well. Plates were sealed, incubated at 4° C. for 5 mins, vortexed extensively and centrifuged briefly. Next, 35 μL of lysate was added to 65 μL QuickExtract DNA Extraction Solution (Epicentre) in a PCR plate for each well. PCR plate was incubated at 65° C. for 6 mins, 98° C. for 2 mins and finally cooled to 4° C. HBV DNA was then quantified by qPCR with HBV-specific primers and probes as specified in Table 3 using the Bio-Rad SSOAdvanced Universal Probes Supermix on a CFX96 machine (Bio-Rad). The PCR cycle program consisted of 95° C. for 3 mins, followed by 40 cycles at 95° C. for 10 sec and 60° C. for 30 sec.
A DNA standard was prepared by dilution of an IDT gBlock corresponding to the amplicon with concentrations ranging from 10^2 to 10^8 copies/input (i.e. per 4 μL) and used to generate a standard curve by plotting Cq values vs. HBV DNA standard concentration. The quantity of HBV DNA in each sample was determined by interpolating from the standard curve.
Cell viability was calculated as follows: % Cell viability=(luminescence value of test sample)/(average luminescence value of 2% DMSO control)×100%. HBV DNA inhibition was calculated as follows: 100−(HBV DNA copy number of test sample)/(average HBV DNA copy number of 2% DMSO control)×100%. No normalization to entecavir was required due to the excellent dynamic window of this assay. The CC50, EC50 and EC90 values were determined by dose-response curves fitted by GraphPad Prism using “log (agonist) vs. response—Variable slope”.
For orientation: Quantitative PCR measures a nucleic acid by following its amplification.

In general, EC50 refers to the concentration giving half of the maximal effect. Read a high EC50 as weaker potency. The compound `C[C@H](NC(=O)c1c2n(c(=O)n1-c1ccc(OCC(F)(F)F)cc1)CCN(C(=O)c1ccc(Br)c(Cl)c1)C2)c1ccc(C#N)cc1F` (racemic) [Example 299, 7-(4-bromo-3-chloro-benzoyl)-3-oxo-N-[rac-(1R)-1-(4-cyano-2-fluoro-phenyl)ethyl]-2-[4-(2,2,2-trifluoroethoxy)phenyl]-6,8-dihydro-5H-imidazo[1,5-a]pyrazine-1-carboxamide] gave a 50% effective concentration (EC50) of 500 to 5000 nM.

`C[C@@H](NC(=O)c1c2n(c(=O)n1-c1ccc(OC3CCC3)cc1)CCN(C(=O)c1ccc(Br)c(Cl)c1)C2)c1ccccc1` (stereo in doubt) [Example 137, 7-(4-bromo-3-chloro-benzoyl)-2-[4-(cyclobutoxy)phenyl]-3-oxo-N-[rac-(1R)-1-phenylethyl]-6,8-dihydro-5H-imidazo[1,5-a]pyrazine-1-carboxamide] gave a half-maximal effective concentration (EC50) of 100 to 500 nM.

For the compound `Cc1cc2occc2cc1CNC(=O)c1c2n(c(=O)n1-c1ccc(OCC(F)(F)F)cc1)CCN(C(=O)c1ccc(Br)c(Cl)c1)C2` [Example 295, 7-(4-bromo-3-chloro-benzoyl)-N-[(6-methylbenzofuran-5-yl)methyl]-3-oxo-2-[4-(2,2,2-trifluoroethoxy)phenyl]-6,8-dihydro-5H-imidazo[1,5-a]pyrazine-1-carboxamide], the EC50 lay in the range of 100 to 500 nM.

Compound `C[C@H]1Cn2c(c3n(c2=O)C[C@@H](F)CN(Cc2ccccc2)C3=O)CN1C(=O)c1ccc(Br)c(Cl)c1` (stereo in doubt) [Example 371, 13-benzyl-4-(4-bromo-3-chlorobenzoyl)-11-fluoro-4,7,9,13-tetraazatricyclo[7.5.0.0^[2,7]]tetradec-1-ene-8,14-dione] returned an EC50 of less than 100 nM.

On to `CC1Cn2c(c(C(=O)NCc3ccccc3-n3cc(F)cn3)n(-c3ccc(OC4CC4)cc3)c2=O)CN1C(=O)c1ccc(Br)c(Cl)c1` (racemic) [Example 440, rac-(6S)-7-(4-bromo-3-chloro-benzoyl)-2-[4-(cyclopropoxy)phenyl]-N-[[2-(4-fluoropyrazol-1-yl)phenyl]methyl]-6-methyl-3-oxo-6,8-dihydro-5H-imidazo[1,5-a]pyrazine-1-carboxamide], for which the concentration for a half-maximal effect (EC50) is less than 100 nM.

Consider `COc1ccc(-n2c(C(=O)NCc3ccc(OC)cc3OC)c3n(c2=O)CCN(C(=O)c2ccc(Br)c(Cl)c2)C3)cc1` [Example 143, 7-(4-bromo-3-chloro-benzoyl)-N-[(2,4-dimethoxyphenyl)methyl]-2-(4-methoxyphenyl)-3-oxo-6,8-dihydro-5H-imidazo[1,5-a]pyrazine-1-carboxamide], for which the 50% effective concentration (EC50) is less than 100 nM.

Regarding `COc1ccc(CNC(=O)c2c3n(c(=O)n2-c2ccc(OC(C)C)cc2)CCN(C(=O)c2ccc(Br)c(Cl)c2)C3)c(F)c1` [Example 218, 7-(4-bromo-3-chloro-benzoyl)-N-[(2-fluoro-4-methoxy-phenyl)methyl]-2-(4-isopropoxyphenyl)-3-oxo-6,8-dihydro-5H-imdiazo[1,5-a]pyrazine-1-carboxamide], the 50% effective concentration (EC50) is less than 100 nM.

`C[C@@H](NC(=O)c1c2n(c(=O)n1-c1ccc(OC3COC3)cc1)CCN(C(=O)c1ccc(Br)c(Cl)c1)C2)c1ccccc1` (stereo in doubt) [Example 170, 7-(4-bromo-3-chloro-benzoyl)-2-[4-(oxetan-3-yloxy)phenyl]-3-oxo-N-[rac-(1R)-1-phenylethyl]-6,8-dihydro-5H-imidazo[1,5-a]pyrazine-1-carboxamide] came in with an EC50 of 100 to 500 nM.

`C[C@H](NC(=O)c1c2n(c(=O)n1-c1ccc(OC3COC3)cc1)CCN(C(=O)c1ccc(Br)c(Cl)c1)C2)c1ccccc1` (stereo in doubt) [Example 169, 7-(4-bromo-3-chloro-benzoyl)-2-[4-(oxetan-3-yloxy)phenyl]-3-oxo-N-[rac-(1S)-1-phenylethyl]-6,8-dihydro-5H-imidazo[1,5-a]pyrazine-1-carboxamide] had an EC50 of 500 to 5000 nM.

Consider `C[C@H](NC(=O)c1c2n(c(=O)n1-c1ccc(OCC(F)(F)F)cc1)CCN(C(=O)c1ccc(Br)c(Cl)c1)C2)c1ccccc1` (stereo in doubt) [Example 127, 7-(4-bromo-3-chloro-benzoyl)-3-oxo-N-[rac-(1S)-1-phenylethyl]-2-[4-(2,2,2-trifluoroethoxy)phenyl]-6,8-dihydro-5H-imidazo[1,5-a]pyrazine-1-carboxamide], for which the EC50 was 500 to 5000 nM.

For the compound `CC(C)(Oc1ccc(-n2c(C(=O)NCc3ccccc3)c3n(c2=O)CCN(C(=O)c2ccc(Br)c(Cl)c2)C3)cc1)C(F)(F)F` [Example 393, N-benzyl-7-(4-bromo-3-chloro-benzoyl)-3-oxo-2-[4-(2,2,2-trifluoro-1,1-dimethyl-ethoxy)phenyl]-6,8-dihydro-5H-imidazo[1,5-a]pyrazine-1-carboxamide], the EC50 was 500 to 5000 nM.

`C[C@@H](NC(=O)c1[nH]c(=O)n2c1CN(C(=O)c1ccc(Br)c(Cl)c1)CC2)c1ccccc1` (racemic) [Example 188, 7-(4-bromo-3-chloro-benzoyl)-3-oxo-N-[rac-(1R)-1-phenylethyl]-2,5,6,8-tetrahydroimidazo[1,5-a]pyrazine-1-carboxamide] gave a half-maximal effective concentration (EC50) of 500 to 5000 nM.

Regarding `C[C@H](Oc1ccc([C@@H](C)NC(=O)c2c3n(c(=O)n2-c2ccc(OC4CC4)cc2)CCN(C(=O)c2ccc(Br)c(Cl)c2)C3)c(F)c1)C(N)=O` (stereo in doubt) [Example 356, 7-(4-bromo-3-chloro-benzoyl)-2-[4-(cyclopropoxy)phenyl]-3-oxo-N-[rac-(1R)-1-[2-fluoro-4-[rac-(1S)-2-amino-1-methyl-2-oxo-ethoxy]phenyl]ethyl]-6,8-dihydro-5H-imidazo[1,5-a]pyrazine-1-carboxamide], the concentration giving a half-maximal response (EC50) lay in the range of 100 to 500 nM.

Consider `C[C@H](NC(=O)c1c2n(c(=O)n1-c1ccc(OCC(F)(F)F)cc1)CCN(C(=O)c1ccc(Br)c(Cl)c1)C2)c1ccc(OC(F)F)cc1F` (stereo in doubt) [Example 318, 7-(4-bromo-3-chloro-benzoyl)-3-oxo-N-[rac-(1S)-1-[4-(difluoromethoxy)-2-fluoro-phenyl]ethyl]-2-[4-(2,2,2-trifluoroethoxy)phenyl]-6,8-dihydro-5H-imidazo[1,5-a]pyrazine-1-carboxamide], for which the EC50 was in the range of 100 to 500 nM.

On to `O=C(NCc1cccc2nccnc12)c1c2n(c(=O)n1-c1ccc(OCC(F)(F)F)cc1)CCN(C(=O)c1ccc(Br)c(Cl)c1)C2` [Example 277, 7-(4-bromo-3-chloro-benzoyl)-3-oxo-N-(quinoxalin-5-ylmethyl)-2-[4-(2,22,- trifluoroethoxy)phenyl]-6,8-dihydro-5H-imidazo[1,5-a]pyrazine-1-carboxamide], for which the EC50 was less than 100 nM.

On to `O=C1CCc2cc(-n3c(C(=O)NCc4ccccc4)c4n(c3=O)CCN(C(=O)c3ccc(Br)c(Cl)c3)C4)ccc2N1` [Example 403, N-benzyl-7-(4-bromo-3-chloro-benzoyl)-3-oxo-2-(2-oxo-3,4-dihydro-1H-quinolin-6-yl)-6,8-dihydro-5H-imidazo[1,5-a]pyrazine-1-carboxamide], for which the EC50 is 500 to 5000 nM.

`COC1CCC(n2c(C(=O)N[C@H](C)c3ccccc3)c3n(c2=O)CCN(C(=O)c2ccc(Br)c(Cl)c2)C3)CC1` (mixture of isomers) [Example 254, 7-(4-bromo-3-chloro-benzoyl)-2-(4-methoxycyclohexyl)-3-oxo-N-[rac-(1R)-1-phenylethyl]-6,8-dihydro-5H-imidazo[1,5-a]pyrazine-1-carboxamide]: the EC50 was greater than 5000 nM.

In the case of `C[C@H](c1ccccc1)N1C[C@H](O)Cn2c(c3n(c2=O)CCN(C(=O)c2ccc(Br)c(Cl)c2)C3)C1=O` (stereo in doubt) [Example 203, (11SR)-4-(4-bromo-3-chloro-benzoyl)-11-hydroxy-13-[(1R)-1-phenylethyl]-4,7,9,13-tetrazatricyclo[7.5.0.0^2,7]tetradec-1-ene-8,14-dione], the EC50 is 100 to 500 nM.

`COc1ccc(-n2c(C(=O)NCc3ccc(F)cc3)c3n(c2=O)CCN(C(=O)c2ccc(Br)c(Cl)c2)C3)cc1` [Example 60, 7-(4-bromo-3-chloro-benzoyl)-N-[(4-fluorophenyl)methyl]-2-(4-methoxyphenyl)-3-oxo-6,8-dihydro-5H-imidazo[1,5-a]pyrazine-1-carboxamide]: the EC50 was in the range of 100 to 500 nM.
